Measurements taken from US7129073B2, “Regulation of neuronal function through metabotropic glutamate receptor signaling pathways” (The Rockefeller University, priority 2001, dated 2006).
“Also recorded” adds a separate entry of the source.

Assays:
[1] = tested on: Cdk5; assay: Cdk5 kinase activity immunoprecipitated from neostriatal slices, histone H-1 as substrate; format: cell-based, mouse
Experimental: Neostriatal slices were prepared from male C57/BL6 mice (6–8 weeks old) in accordance with methods known in the art (Nishi, A. et al. 1997, J. Neurosci. 17:8147–8155). Slices were treated with a drug. After drug treatment, slices were immediately frozen in liquid nitrogen, and stored at −80° C. until assayed.
For Cdk5 immunoprecipitation, striatal tissue slices (approximately 150 μg total protein) were lysed using a Dounce homogenizer and 1 ml of lysis buffer (150 mM NaCl, 20 mM Tris-HCl (pH 7.4), 1 mM EDTA, 0.5% NP-40, 5 mM NaF, 5 mM Na3PO4 and protease inhibitors). Lysates were centrifuged at 10,000 g for 10 minutes at 4° C. Supernatants were pre-cleared by adding rabbit IgG-conjugated agarose for 40 minutes at 4° C. Ten μl of Cdk5 antibody conjugated to agarose were added and samples were incubated for 1 hour at 4° C. with mixing. Agarose pellets were collected and washed three times with 1 ml of lysis buffer and two times with kinase assay buffer (50 mM Hepes (pH 7.5), 10 mM MgCl2, 1 mM DTT). Cdk5 kinase assays were performed in a 30-μl reaction mixtures with 2 μg Histone H-1, 500 μM ATP and 5 μCi of γ-^32P-ATP. Samples were incubated at 30° C. for 10 minutes, reactions were stopped by addition of SDS-sample buffer, and samples were boiled for 5 minutes. Samples were separated by SDS-PAGE and analyzed as disclosed above for CKI assays. Data were analyzed by Student's t-test in Microsoft Excel software as indicated, with significance defined as p<0.05.
CK1 assays were performed in a 30 μl assay volume with 2 μg of purified DARPP-32, 500 μM ATP and 5 μCi γ-^32P-ATP. Reactions were started by addition of the ATP. Samples were incubated at 30° C. for 10 min and reactions were stopped by addition of SDS-sample buffer and boiled for 5 min. Samples were separated by SDS-PAGE (12% polyacrylamide). SDS-PAGE gels were dried and exposed to Kodak film for autoradiography. Results were quantified using a Molecular Dynamics PHOSPHORIMAGER™. Immunoprecipitation and assay of Cdk5 were performed as disclosed (20).

[2] = tested on: voltage-dependent Ca2+ channels; assay: whole-cell recordings of voltage-dependent Ca2+ channels in dissociated neostriatal neurons; format: cell-based, mouse; details: for effect on basal Ca2+ currents / effect on the enhancement of Ca2+ currents by DHPG: CK1–7 100 μM, butyrolactone 25 μM (FIG. 6)
Experimental: Neostriatal neurons from 3- to 4-week-old mice were acutely dissociated by using procedures similar to those disclosed in Eberwine et al. (1995, Prog. Brain Res. 105:117–126). Whole-cell current recordings used standard voltage-clamp techniques. The internal solution consisted of 180 mM N-methyl-D-glucamine, 40 mM Hepes, 4 mM MgCl2, 0.5 mM 1,2-bis(2-aminophenoxy)ethane-N,N,N′,N′-tetraacetate, 12 mM phosphocreatine, 2 mM Na2ATP, 0.2 mM Na3GTP, 0.1 mM leupeptin (pH 7.2–7.3), 265–270 mosm/liter. The external solution consisted of 135 mM NaCl, 20 mM CsCl, 1 mM MgCl2, 10 mM Hepes, 0.001 mM tetrodotoxin, 5 mM BaCl2, 10 mM glucose (pH 7.3), 300–305 mosm/liter. Recordings were obtained with an Axon Instruments 200B patch clamp amplifier that was controlled and monitored with an IBM PC running PCLAMP™ (v. 8) with a DigiData 1320 series interface (Axon Instruments, Foster City, Calif.). Electrode resistances were typically 2–4 MΩ in the bath. After seal rupture, series resistance (4–10 MΩ) was compensated (70–90%) and periodically monitored. Drugs were applied with a gravity-fed “sewer pipe” system. The array of application capillaries was positioned 250 μm from the cell under study. Solution changes were effected by altering the position of the array with a DC drive system controlled by a microprocessor-based controller (Newport-Klinger, Irvine, Calif.). Data analyses were performed with AXOGRAPH™ (Axon Instruments), […]™ (Albeck Software, Reading, Pa.), and […]™ (Abacus Concepts, Berkeley, Calif.).

[3] = tested on: CKI; assay: in vitro inhibitory potency of CKI-7 towards CKI; format: biochemical
Experimental: (§1) CKI may also regulate Cdk5 kinase activity in response to mGluR receptor activation, or vice versa. To examine these possibilities, experiments were performed with a CKI inhibitor, CKI-7. The crystal structure of the catalytic domain of casein kinase I complexed with CKI-7 provided evidence that CKI-7 achieves its selectivity for CKI by hydrophobic contacts and hydrogen bonding with the isoquinoline ring (Xu, R. M. et al. 1996. Proc. Natl. Acad. Sci. USA 93:6308–6313). In in vitro studies, the inhibitory potency (IC50 values) for CKI-7 towards CKI and Cdk5/p25 was determined.

[4] = target: Cdk5/p25 (Homo sapiens, UniProt Q00535); assay: in vitro inhibitory potency of CKI-7 towards Cdk5/p25; format: biochemical
Experimental: as §1

[5] = tested on: MM2-CK1ε; assay: kinase activity of Myc-MM2-CK1ε mutant immunoprecipitated from transfected N2a cells; format: cell-based; details: DHPG 100 μM 2 min, in the absence or presence of cyclosporin A
Experimental: Neuroblastoma N2a cells were cultured to 50–60% confluence in DMEM containing 5% fetal bovine serum. Four μg of the expression plasmid for HA-CK1ε or myc-MM2-CK1ε was transfected into N2a cells in 100 mm dishes using FuGENE6™. Twenty-four hours after transfection, cells were incubated at room temperature in phosphate-buffered Kreb's-Henseleit solution (Sigma) for 10 min and then with or without inhibitors for 30 min before treating with (S)-3,5-DHPG, for 2 min. Cells were then lysed in 1 ml of radio-immunoprecipitation (RIPA) buffer containing 1% NP-40, 150 mM NaCl, 0.1% SDS, 50 mM Tris, pH 8.0, 5 mM Na3VO4, 20 mM NaF, 20 mM β-glycerol-phosphate and protease inhibitors. Lysates were centrifuged at 10,000 g, and supernatants were used for immunoprecipitation and kinase assay.
For immunoprecipitation of CK1ε from N2a cells, lysates (1 mg of total protein) were precleared with 5 μl of mouse IgG (ICN) and 50 μl of protein A agarose for 30 min. Five μl (approximately 2 μg) of anti-HA or anti-myc antibody was added and samples were incubated for 1 h at 4° C. Five μl of anti-mouse rabbit IgG and 50 μl of protein A agarose were then added for 45 min. […]
CK1 assays were performed in a 30 μl assay volume with 2 μg of purified DARPP-32, 500 μM ATP and 5 μCi γ-^32P-ATP. […] Results were quantified using a Molecular Dynamics PHOSPHORIMAGER™. […]

[6] = tested on: HA-CK1ε; assay: 32P metabolic labeling and two-dimensional phosphopeptide mapping of HA-CK1ε in N2a cells; format: cell-based; details: DHPG 2 or 4 min; returned to 0 min level at ten min

Sequence of Cdk5/p25 (Q00535 whole entry, species assumed): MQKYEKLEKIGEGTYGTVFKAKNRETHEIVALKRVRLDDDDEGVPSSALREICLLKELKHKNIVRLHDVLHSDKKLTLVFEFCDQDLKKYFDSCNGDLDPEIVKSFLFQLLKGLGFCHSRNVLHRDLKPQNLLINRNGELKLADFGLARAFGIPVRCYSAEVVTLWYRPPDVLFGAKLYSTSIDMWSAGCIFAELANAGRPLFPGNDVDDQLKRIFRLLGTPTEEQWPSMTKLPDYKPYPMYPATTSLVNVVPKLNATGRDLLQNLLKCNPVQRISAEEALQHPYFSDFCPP
Sequence of Cdk5/p25 (Q15078 99-307 partner limits assumed, species assumed): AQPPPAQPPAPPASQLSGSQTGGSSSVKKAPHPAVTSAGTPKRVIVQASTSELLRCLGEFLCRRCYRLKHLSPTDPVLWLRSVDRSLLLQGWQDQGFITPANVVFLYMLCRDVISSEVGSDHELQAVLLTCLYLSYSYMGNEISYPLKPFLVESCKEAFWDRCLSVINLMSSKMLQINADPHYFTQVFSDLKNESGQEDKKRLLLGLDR

| SMILES | effect of pretreatment on the effect of DHPG on Cdk5 kinase activity ([1]; CKI-7 dose-dependent, U73122 10 μM, BAPTA/AM 20 μM, cyclosporin A 5 μM) | effect on basal Ca2+ currents [2] | effect on the enhancement of Ca2+ currents by DHPG ([2]; DHPG 100 μM) | effect on the enhancement of Ca2+ currents by DHPG ([2]; DHPG 100 μM, listed as CK1–7) | effect on basal Ca2+ currents ([2]; listed as CK1–7) | IC50 [3] [µM] | IC50 [4] [µM] | effect on Cdk5 kinase activity ([1]; DHPG treatment of slices) | increase in Cdk5 activity ([1]; DHPG, after 2 minutes, back to basal level after 5 minutes) | time to enhancement of Ca2+ currents ([2]; DHPG) [s] | effect on Ca2+ currents ([2]; DHPG 100 μM, wild-type neurons) | effect of DHPG on Ca2+ channels in neurons from DARPP-32 knock-out mice ([2]; DHPG 100 μM, nine out of ten neurons) | effect on MM2-CK1ε activity [5] | effect on phosphorylation state of CK1ε (subset of acidic phosphopeptides) [6] |
| --- | --- | --- | --- | --- | --- | --- | --- | --- | --- | --- | --- | --- | --- | --- |
| NCCNS(=O)(=O)c1ccc(Cl)c2ccncc12 [CKI-7] | attenuated | significant reduction | eliminated | attenuated | reduced | 15 | 200 | – | – | – | – | – | – | – |
| N[C@H](C(=O)O)c1cc(O)cc(O)c1 [DHPG, (S)-3,5-Dihydroxyphenylglycine] | – | – | – | – | – | – | – | rapid but transient increase; also recorded: increased | approximately 4 fold | ≤ 90 | enhanced; also recorded: increased | completely eliminated; also recorded: no effect | no effect | rapid and transient dephosphorylation |
